Data published in patent EP1105728B1, “MODULATING MULTIPLE LINEAGE KINASE PROTEINS” (CEPHALON, INC., priority 1998, dated 2000).

Molecular target: T1, MEKK1 (Homo sapiens, UniProt Q13233)
T1 construct: expressed in transfected cells; host or cells: Cos7
Experiment: JNK activity in Cos7 cells overexpressing HA-JNK1 with MEKK1
Format: cell-based
Details: 500 nM; Cos7 cells overexpressing HA-JNK1 with MEKK1 (Figure 15C)

T1 sequence (Q13233 whole entry, species assumed): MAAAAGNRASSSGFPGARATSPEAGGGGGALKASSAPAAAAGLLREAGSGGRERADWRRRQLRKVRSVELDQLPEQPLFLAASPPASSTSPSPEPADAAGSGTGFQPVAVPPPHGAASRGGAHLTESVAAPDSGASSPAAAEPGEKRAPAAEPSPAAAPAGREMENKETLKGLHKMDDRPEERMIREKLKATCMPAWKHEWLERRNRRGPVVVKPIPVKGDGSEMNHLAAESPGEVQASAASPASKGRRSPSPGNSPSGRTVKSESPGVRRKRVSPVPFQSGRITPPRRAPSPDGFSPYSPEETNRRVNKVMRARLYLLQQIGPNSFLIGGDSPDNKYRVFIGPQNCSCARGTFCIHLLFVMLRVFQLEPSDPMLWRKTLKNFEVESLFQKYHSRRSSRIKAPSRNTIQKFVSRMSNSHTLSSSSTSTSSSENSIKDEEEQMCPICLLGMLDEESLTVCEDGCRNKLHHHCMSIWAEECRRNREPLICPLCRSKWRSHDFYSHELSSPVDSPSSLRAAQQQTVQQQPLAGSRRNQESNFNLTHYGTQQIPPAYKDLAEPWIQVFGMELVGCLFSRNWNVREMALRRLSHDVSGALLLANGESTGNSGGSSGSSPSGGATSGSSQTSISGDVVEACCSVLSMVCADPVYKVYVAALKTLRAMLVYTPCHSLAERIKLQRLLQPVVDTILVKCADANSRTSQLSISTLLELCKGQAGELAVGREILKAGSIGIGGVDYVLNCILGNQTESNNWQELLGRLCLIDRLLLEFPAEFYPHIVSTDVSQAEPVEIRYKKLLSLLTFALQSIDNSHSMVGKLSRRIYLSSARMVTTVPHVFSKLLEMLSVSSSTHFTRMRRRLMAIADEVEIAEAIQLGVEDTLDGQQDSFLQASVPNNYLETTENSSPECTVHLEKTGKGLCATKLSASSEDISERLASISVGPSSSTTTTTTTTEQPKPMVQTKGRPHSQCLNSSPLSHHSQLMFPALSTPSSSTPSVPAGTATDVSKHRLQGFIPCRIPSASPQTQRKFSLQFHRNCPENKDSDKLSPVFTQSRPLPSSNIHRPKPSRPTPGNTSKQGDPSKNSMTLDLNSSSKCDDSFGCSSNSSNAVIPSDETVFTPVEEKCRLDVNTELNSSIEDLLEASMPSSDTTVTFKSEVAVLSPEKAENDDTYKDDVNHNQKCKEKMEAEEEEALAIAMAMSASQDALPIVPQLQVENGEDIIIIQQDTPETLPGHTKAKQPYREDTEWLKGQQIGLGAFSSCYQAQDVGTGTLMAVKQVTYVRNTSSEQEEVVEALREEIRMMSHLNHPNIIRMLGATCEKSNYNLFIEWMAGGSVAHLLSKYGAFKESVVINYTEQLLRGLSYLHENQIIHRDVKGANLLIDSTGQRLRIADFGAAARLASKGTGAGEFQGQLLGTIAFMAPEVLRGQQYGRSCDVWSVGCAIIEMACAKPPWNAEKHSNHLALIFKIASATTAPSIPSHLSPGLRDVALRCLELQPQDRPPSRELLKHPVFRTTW

CCSCc1ccc2c(c1)c1c3c(c4c5cc(CSCC)ccc5n5c4c1n2C1CC(O)(C(=O)OC)C5(C)O1)CNC3=O (stereo not shown) [III-3]
JNK pathway activated by MEKK1: did not interfere with the JNK pathway
